Experimental data: patent US9750727B2 (priority 2010, dated 2017)

System: drug-resistant clinical isolates of M. tuberculosis
Type: cell-based

With NC(=S)NN=Cc1ccncc1.[O-][Cl+3]([O-])([O-])O [new treatment] the “MIC for 88.8% of cultures” value was 3.125 to 6.25 µg/mL.
